Measured values: the NIST ThermoML archive (doi:10.1021/je7003929)

Settings: Liquid, Vibrating tube method

CCCCCC [hexane]
Settings	mass density [kg/m3]
313.12 K, 1019 kPa	642.2
313.12 K, 2044 kPa	643.5
313.12 K, 3023 kPa	644.6
313.12 K, 4018 kPa	645.8
313.12 K, 5016 kPa	647
313.12 K, 6012 kPa	648.1
313.12 K, 7016 kPa	649.2
313.12 K, 8016 kPa	650.3
313.12 K, 9020 kPa	651.4
313.12 K, 10018 kPa	652.5
313.12 K, 11020 kPa	653.5
313.12 K, 12004 kPa	654.6
313.12 K, 13007 kPa	655.6
313.12 K, 14015 kPa	656.6
313.12 K, 15006 kPa	657.6
313.12 K, 16023 kPa	658.6
313.12 K, 17015 kPa	659.6
313.12 K, 18011 kPa	660.5
313.12 K, 19009 kPa	661.4
313.12 K, 20016 kPa	662.4
313.12 K, 20995 kPa	663.3
313.12 K, 22018 kPa	664.2
313.12 K, 23018 kPa	665.1
313.12 K, 24013 kPa	666
313.12 K, 25002 kPa	666.8
323.05 K, 1030 kPa	633
323.05 K, 2010 kPa	634.3
323.05 K, 3021 kPa	635.6
323.05 K, 4018 kPa	636.9
323.05 K, 5014 kPa	638.1
323.05 K, 6007 kPa	639.4
323.05 K, 7010 kPa	640.6
323.05 K, 8012 kPa	641.8
323.05 K, 9020 kPa	643
323.05 K, 10008 kPa	644.1
323.05 K, 11021 kPa	645.2
323.05 K, 12011 kPa	646.4
323.05 K, 13007 kPa	647.4
323.05 K, 14007 kPa	648.5
323.05 K, 15035 kPa	649.6
323.05 K, 16011 kPa	650.6
323.05 K, 17021 kPa	651.6
323.05 K, 18020 kPa	652.7
323.05 K, 19013 kPa	653.7
323.05 K, 20001 kPa	654.6
323.05 K, 21028 kPa	655.6
323.05 K, 22004 kPa	656.6
323.05 K, 23010 kPa	657.5
323.05 K, 24021 kPa	658.5
323.05 K, 25018 kPa	659.4
332.85 K, 1020 kPa	623.5
332.85 K, 2021 kPa	625
332.85 K, 3022 kPa	626.5
332.85 K, 4020 kPa	627.8
332.85 K, 5011 kPa	629.2
332.85 K, 6016 kPa	630.6
332.85 K, 7012 kPa	631.9
332.85 K, 8025 kPa	633.3
332.85 K, 9012 kPa	634.5
332.85 K, 10010 kPa	635.7
332.85 K, 11012 kPa	636.9
332.85 K, 12019 kPa	638.1
332.85 K, 13007 kPa	639.2
332.85 K, 14021 kPa	640.4
332.85 K, 15014 kPa	641.6
332.85 K, 16025 kPa	642.8
332.85 K, 17011 kPa	643.8
332.85 K, 18035 kPa	644.9
332.85 K, 19014 kPa	646
332.85 K, 20011 kPa	647.1
332.85 K, 21015 kPa	648.1
332.85 K, 22000 kPa	649.1
332.85 K, 23012 kPa	650.1
332.85 K, 24022 kPa	651.2
332.85 K, 25030 kPa	652.2
